Laboratory results: US20130244929A1 (priority 2010, published 2013)
Where a name gives a salt, the structure may show the parent alone. Read-outs that look alike come from different tables or passages of the source.

Columns and labels:
SpsB = molecular target: T1, SpsB (Staphylococcus aureus, UniProt P0A070); assay: Inhibition of SpsB enzyme activity (fluorescence-based assay, bacterial membrane fraction); type: biochemical
T1 construct: using a bacterial membrane fraction as a source of SpsB; from tissue
T1 sequence (P0A070 1-191): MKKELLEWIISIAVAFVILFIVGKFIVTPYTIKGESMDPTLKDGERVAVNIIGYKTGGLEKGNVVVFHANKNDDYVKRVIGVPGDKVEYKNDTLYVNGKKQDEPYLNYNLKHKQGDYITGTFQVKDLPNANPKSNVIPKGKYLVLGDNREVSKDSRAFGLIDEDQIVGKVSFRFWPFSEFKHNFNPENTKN
Experimental: Signal peptidase enzyme activity was measured in a fluorescence-based assay using a bacterial membrane fraction as a source of SpsB (See Bruton et al., 2003, Eur J Med Chem 38:351-356). The SpsB substrate is a synthetic lipopeptide, decanoyl-K(DABCYL)-TPTAKA↓ASKKD-D(EDANS)—NH2 (prepared by JPT Peptide Technologies, Berlin, Germany). Assays were performed with 20 μM peptide substrate (Km≈5 μM) and reactions were initiated with enzyme addition (final protein concentration of 0.6 mg/mL). SpsB mediated cleavage of the peptide substrate was detected as an increase in fluorescence (excitation 340 nm/emission 460 nm).

[1] = tested on: MB 5393 (COL), a methicillin-resistant S. aureus strain; assay: Determination of minimum and synergistic inhibitory concentration; type: cell-based; conditions: for SIC: presence of imipenem (4 μg/mL); for MIC: Staphylococcus aureus
Experimental: MB 5393 (COL), a methicillin-resistant S. aureus strain, was inoculated into Trypticase Soy Broth (TSB, BBL) and grown in a humidified incubator for 18 hours with rotary shaking at 220 rpm and kept on ice until used.
A quantity of imipenem (Merck Chemical Collection) was weighed out and dissolved into sterile 10 mM MOPS buffer at pH 7. This solution was diluted to 1600 μg/mL, 200 μg/mL, and 25 μg/mL and filter-sterilized through a 0.45 μm filter. From these solutions, seven 1:2 serial dilutions were prepared using sterile 10 mM MOPS buffer at pH 7. The final concentration ranges tested were 128 to 2 μg/mL, 16 to […], and 2 to 0.03 μg/mL. The solutions were kept refrigerated until used.
Test compounds (EXAMPLES 1-67) were prepared in sterile water or DMSO at a concentration of 3.2 mg/mL. From this solution, 11 serial 1:2 dilutions were prepared using sterile water. The final concentration range tested was 64 to 0.0313 μg/mL. The solutions were kept refrigerated until used.
Two-fold serial dilutions of test compounds were tested in the presence and absence of subinhibitory concentrations of imipenem (4 μg/mL) in 96-well U bottom microliter dishes in microbiological growth media. The plates were inoculated with bacterial cells to a final concentration of ˜5×10^5 CFU/mL. Test plates were incubated stationery at 37° C. for 22-24 hours.
After 22 hours of incubation, the Minimum inhibitory concentrations (MICs) were determined, defined as the lowest concentration of antibiotic that prevented all visible growth in the absence of imipenem. Synergistic inhibitory concentrations (SICs) were determined, defined as the lowest concentration of antibiotic that prevented all visible growth in the presence of imipenen.

[2] = MRSA COL, absence of imipenem, 22 hours, read-out: MIC

SMILES	IC50 (SpsB) [nM]	SIC ([1]; MRSA COL, 22 hours)	MIC ([1]; MRSA, 22 h) [µg/mL]	MIC [1, 2] [µg/mL]
CCCCCCCCCc1ccc(-c2ccc(C(=O)NCCC(=O)N[C@@H](CCCCN)C(=O)N(C)[C@@H]3C(=O)N[C@@H](C)C(=O)N[C@H](C(=O)O)Cc4ccc(O)c(c4)-c4cc3ccc4O)c(O)c2)cc1 [EXAMPLE 39]	< 10	G (G: SIC <0.0625)	< 1	
CCCCCCCCCc1ccc(-c2ccc(C(=O)NCCC(=O)N[C@@H](CCCCN)C(=O)N(C)[C@@H]3C(=O)N[C@@H](C)C(=O)N[C@H](C(=O)O)Cc4ccc(O)c(c4)-c4cc3ccc4O)cn2)cc1 [EXAMPLE 54]	< 10	G (G: SIC <0.0625)	< 1	
C[C@@H]1NC(=O)[C@@H](N(C)C(=O)[C@H](CCCCN)NC(=O)CCNC(=O)c2ccc(-c3ccc(C4CCCCC4)cc3)cc2)c2ccc(O)c(c2)-c2cc(ccc2O)C[C@@H](C(=O)O)NC1=O [EXAMPLE 49]	< 10	G (G: SIC <0.0625)	< 1	
CCCCCCCCCc1ccc(-c2ccc(C(=O)NCCC(=O)N3C[C@@H](N)C[C@H]3C(=O)N(C)[C@@H]3C(=O)N[C@@H](C)C(=O)N[C@H](C(=O)O)Cc4ccc(O)c(c4)-c4cc3ccc4O)cc2)cc1 [EXAMPLE 44]	< 10	G (G: SIC <0.0625)	< 1	
CCCCCCCCCc1ccc(-c2ccc(C(=O)NCCC(=O)N[C@@H](CCCCN)C(=O)N(C)[C@@H]3C(=O)N[C@@H](C)C(=O)N[C@H](C(=O)O)Cc4ccc(O)c(c4)-c4cc3ccc4O)cc2C)cc1 [EXAMPLE 58]	< 10	G (G: SIC <0.0625)	< 1	
COc1ccc2cc1-c1cc(ccc1OC)[C@H](N(C)C(=O)[C@H](CCCCN)NC(=O)CCNC(=O)c1ccc(-c3ccc(CCCCCCCCC(C)(C)O)cc3)cc1)C(=O)N[C@@H](C)C(=O)N[C@H](C(=O)O)C2 [EXAMPLE 56]	< 10	H (H: SIC 0.062-1)	1 to 8	
C[C@@H]1NC(=O)[C@@H](N(C)C(=O)[C@H](CCCCN)NC(=O)CCNC(=O)c2ccc(-c3ccc(CC4CCCCC4)cc3)cc2)c2ccc(O)c(c2)-c2cc(ccc2O)C[C@@H](C(=O)O)NC1=O [EXAMPLE 27]	< 10	G (G: SIC <0.0625)	< 1	
CCCCCCCCCc1ccc(-c2ccc(C(=O)NCCC(=O)N[C@@H](CCCCN)C(=O)N(C)[C@@H]3C(=O)N[C@@H](C)C(=O)N[C@H](C(=O)O)Cc4ccc(O)c(c4)-c4cc3ccc4O)c(F)c2)cc1 [EXAMPLE 66]	10 to 50	G (G: SIC <0.0625)	< 1	
CCCCCCCCCCc1ccc2ccc(C(=O)NCCC(=O)N3CCC[C@H]3C(=O)N(C)[C@@H]3C(=O)N[C@@H](C)C(=O)N[C@H](C(=O)O)Cc4cccc(c4)-c4cc3ccc4OC)cc2c1 [EXAMPLE 67]	10 to 50	I (I: SIC >1)		> 8
CCCCCCCCCc1ccc(-c2ccc3sc(C(=O)NCCC(=O)N[C@@H](CCCCN)C(=O)N(C)[C@@H]4C(=O)N[C@@H](C)C(=O)N[C@H](C(=O)O)Cc5ccc(O)c(c5)-c5cc4ccc5O)cc3c2)cc1 [EXAMPLE 45]	< 10	G (G: SIC <0.0625)	1 to 8	
CCCCCCCCc1ccc(-c2ccc(C(=O)NCCC(=O)N[C@@H](CCCCN)C(=O)N(C)[C@@H]3C(=O)N[C@@H](C)C(=O)N[C@H](C(=O)O)Cc4ccc(O)c(c4)-c4cc3ccc4O)cc2)cc1 [EXAMPLE 23]	< 10	G (G: SIC <0.0625)	< 1	
CCCc1ccc(-c2ccc(C(=O)NCCC(=O)N3CC(CCN)C[C@H]3C(=O)N(C)[C@@H]3C(=O)N[C@@H](C)C(=O)N[C@H](C(=O)O)Cc4ccc(O)c(c4)-c4cc3ccc4O)cc2)cc1 (stereo partly drawn) [EXAMPLE 53]	< 10	G (G: SIC <0.0625)	< 1	
CCCCCCCCCCc1ccc2cc(C(=O)NCCC(=O)N3CCCC3C(=O)N(C)[C@@H]3C(=O)N[C@@H](C)C(=O)N[C@H](C(=O)O)Cc4ccc(O)c(c4)-c4cc3ccc4O)ccc2c1 (stereo in doubt) [EXAMPLE 14, (8S,11S,14S)-3,18-dihydroxy-11-methyl-14-(methyl{[(2R)-1-{3-[(6-decyl-2-naphthoyl)amino]propanoyl}pyrrolidin-2-yl]carbonyl}amino)-10,13-dioxo-9,12-diazatricyclo[13.3.1.1^2,6]icosa-1(19),2(20),3,5,15,17-hexaene-8-carboxylic acid]	< 10	G (G: SIC <0.0625)		< 1
CCCCCc1ccc(-c2ccc(C(=O)NCCC(=O)N[C@@H](CCCCN)C(=O)N(C)[C@@H]3C(=O)N[C@@H](C)C(=O)N[C@H](C(=O)O)Cc4ccc(O)c(c4)-c4cc3ccc4O)cc2)cc1 [EXAMPLE 35]	< 10	G (G: SIC <0.0625)	< 1	
CCCCCCCCCc1ccc(-c2ccc(C(=O)NCCC(=O)N3CCC[C@H]3C(=O)N(C)[C@@H]3C(=O)N[C@@H](C)C(=O)N[C@H](C(=O)O)Cc4ccc(O)c(c4)-c4cc3ccc4O)cc2)cc1 [EXAMPLE 18, (8S,11S,14S)-3,18-dihydroxy-11-methyl-14-(methyl{[(2)-1-(3-{[(4′-nonylbiphenyl-4-yl)carbonyl]amino}propanoyl)pyrrolidin-2-yl]carbonyl}amino)-10,13-dioxo-9,12-diazatricyclo[13.3.1.1^2,6]icosa-1(19),2(20),3,5,15,17-hexaene-8-carboxylic acid]	< 10	H (H: SIC 0.062-1)		1 to 8
CCCCc1ccc(C#Cc2ccc(C(=O)NCCC(=O)NC(CCCCN)C(=O)N(C)[C@@H]3C(=O)N[C@@H](C)C(=O)N[C@H](C(=O)O)Cc4ccc(OC)c(c4)-c4cc3ccc4OC)cc2)cc1 (stereo partly drawn) [EXAMPLE 10, 5-{[3-({4-[(4-butylphenyl)ethynyl]benzoyl}amino)propanoyl]amino}-6-[[(7S,10S,13S)-13-carboxy-3,18-dimethoxy-10-methyl-8,11-dioxo-9,12-diazatricyclo[13.3.1.1^2,6]icosa-1(19),2(20),3,5,15,17-hexaen-7-yl](methyl)amino]-6-oxohexart-1-aminium trifluoroacetate]	< 10	H (H: SIC 0.062-1)		1 to 8
CCCCCCCCCc1ccc(-c2ccc(C(=O)NCCC(=O)N[C@@H](CCCCO)C(=O)N(C)[C@@H]3C(=O)N[C@@H](C)C(=O)N[C@H](C(=O)O)Cc4ccc(O)c(c4)-c4cc3ccc4O)cc2)cc1 [EXAMPLE 50]	< 10	H (H: SIC 0.062-1)		> 8
CCCc1ccc(-c2ccc(C(=O)NCCC(=O)NC(CCCCN)C(=O)N(C)[C@@H]3C(=O)N[C@@H](C)C(=O)N[C@H](C(=O)O)Cc4ccc(O)c(c4)-c4cc3ccc4O)cc2)cc1.O=C(O)C(F)(F)F (stereo partly drawn) [EXAMPLE 2, 5-(R,S)-6-[[(7S,10S,3S)-13-carboxy-3,18-dihydroxy-10-methyl-8,11-dioxo-9,12-diazatricyclo[13.3.1.1^2,6]icosa-1(19),2(20),3,5,15,17-hexaen-7-yl](methyl)amino]-6-oxo-5-[(3-{[(4′-propylbiphenyl-4-yl)carbonyl]amino}propanoyl)amino]hexan-1-aminium trifluoroacetate]	10 to 50	H (H: SIC 0.062-1)		1 to 8
CCCCCCCOCc1ccc(-c2ccc(C(=O)NCCC(=O)N[C@@H](CCCCN)C(=O)N(C)[C@@H]3C(=O)N[C@@H](C)C(=O)N[C@H](C(=O)O)Cc4ccc(O)c(c4)-c4cc3ccc4O)cc2)cc1 [EXAMPLE 36]	< 10	G (G: SIC <0.0625)	< 1	
CC(c1ccc(-c2ccc(C(=O)NCCC(=O)N[C@@H](CCCCN)C(=O)N(C)[C@@H]3C(=O)N[C@@H](C)C(=O)N[C@H](C(=O)O)Cc4ccc(O)c(c4)-c4cc3ccc4O)cc2)cc1)C12CC3CC(CC(C3)C1)C2 (stereo partly drawn) [EXAMPLE 22]	< 10	G (G: SIC <0.0625)	< 1	
CCCCCCCCCCc1ccc2nc(C(=O)NCCC(=O)N[C@@H](CCCCN)C(=O)N(C)[C@@H]3C(=O)N[C@@H](C)C(=O)N[C@H](C(=O)O)Cc4ccc(O)c(c4)-c4cc3ccc4O)ccc2c1 [EXAMPLE 62]	10 to 50	G (G: SIC <0.0625)		< 1
